Results as given in US20150024008A1, “Methods and Compositions Involving Induced Senescent Cells for Cancer Treatment” (THE UNIVERSITY OF CHICAGO, priority 2011, published 2015).

How the values were obtained:
[1] = test system: Nu61 head and neck squamous carcinoma xenografts; test: SA-βGal in Nu61 tumor xenografts; assay type: in vivo, mouse
Experimental: Head and neck squamous carcinomas cell line Nu61^Tet-On GFP-IBD with IRIF live imaging reporter have been developed. Female athymic nude mice underwent s.c. injection of 1×10^7 Nu61 Tet-OnGFP-IBD cells in 100 μL of PBS. Nine days later, mice received 25 mg/kg veliparib (ChemieTek) by oral gavage 48 hours before and 72 hours after a single dose of 6 Gy. […] Tumors were excised and frozen in liquid nitrogen for subsequent analysis. Frozen sections were analyzed for SA-βGal activity. The senescence-associated β-galactosidase (SA-βGal) assay was conducted as described before. Images were captured on a Zeiss Axiovert 200M and Zeiss Axiocam color digital camera controlled by OpenLab software with a ×20 objective.

[2] = test system: MCF7 Tet-On GFP-IBD human breast cancer cell line; test: GFP-53BP1 IRIF persistence, senescence and growth in MCF7 Tet-On GFP-IBD cells; assay type: cell-based; details: for persistence of GFP-53BP1 foci (IRIF) / accelerated senescence: combined with irradiation; for Senescence inducing condition 2 (compound concentration combined with IR) / Senescence inducing condition 1 (compound concentration combined with IR): MCF7 cell line
Experimental: To examine the effect of glucose metabolism on IRIF persistence in living cells, we exploited our previously described IRIF reporter consisting of GFP fused to the 53BP1 IRIF binding domain, expressed under tetracycline-inducible control. MCF7^Tet-On GFP-IBD cells were seeded at 3×10^5 per Fluorodish (World Precision Instruments, Inc.) in high-glucose (4.5 g/L) DMEM (Invitrogen) media supplemented with 10% Tet system-approved fetal bovine serum (Clontech) and 1 μg/mL doxycycline (Sigma). Next day media was exchanged for either high-glucose (4.5 g/L) or low-glucose (1 g/L) DMEM with 10% FBS and 1 μg/mL doxycycline. […] Cells were fixed at 3 h and 24 h for IRIF imaging and at day 5 for SA-βGal staining. Images were captured on Zeiss Axiovert 200M and a Hammatsu Orca ER FireWire digital monochrome (IRIF) or Zeiss Axiocam color digital camera (SA-βGal staining) controlled by OpenLab software.
To investigate what step of glycolysis is critical for improvement of DNA repair we used set of well established glycolysis inhibitors including glucose transporter Glut1 inhibitor, HXKi, GAPHi, PKi, LDHi. […] Given that elevated glycolysis predispose tumor cells for therapeutic resistance similar experiment has been performed on IR resistant PANC02 mouse pancreatic and U87 human glioma cell lines.

[3] = test system: PANC02 mouse pancreatic cell line; test: GFP-53BP1 IRIF persistence in PANC02 Tet-On GFP-IBD cells; assay type: cell-based; details: 24 hours after 6 Gy
Experimental: (§1) PANC02^Tet-On GFP-IBD and U87^Tet-On GFP-IBD cell lines have been developed. Cells were seeded at 3×10^5 per Fluorodish in media supplemented with 1 μg/mL doxycycline following pretreatment for 1 h with glycolysis inhibitors before 6 Gy irradiation at 48 h. Phloretin Glut1i—Glucose transporter 1 inhibitor 100 μM (Sigma), HXi—Hexokinase inhibitorII 50 μM (Calbiochem), PKi—Pyruvate kinase inhibitor oxalate 50 μM (Sigma), LDHi—Lactate dehydrogenase inhibitor, oxamate 1 mM (Sigma).

[4] = test system: U87 human glioma cell line; test: GFP-53BP1 IRIF persistence in U87 Tet-On GFP-IBD cells; assay type: cell-based; details: 24 hours after 6 Gy
Experimental: as §1

[5] = chemotherapy agent, no irradiation stated

For `O=CC[C@@H](O)[C@H](O)[C@H](O)CO` [2DG, 2-deoxy-D-glucose], the “SA-βGal induction in tumor” value ([1]; irradiated tumor treated with 2DG and veliparib) was “Strongest induction of SA-βGal”, the “SA-βGal positive cells in tumor” value ([1]; irradiation combined with 2DG) was “induced numerous cells stained positive for SA-βGal” and the “persistence of GFP-53BP1 foci (IRIF)” value [2] was “induced persistence of GFP-53BP1 foci”.

With `Nc1nc2ccc(Cl)cc2c2nc(-c3ccco3)nn12` [CGS15943] the “Senescence inducing condition 2 (compound concentration combined with IR)” value ([2]; compound + 5 Gy) was 0.05 μM + 5 Gy^.

In the case of `N[C@@H](C(=O)N[C@@H]1C(=O)N2C(C(=O)O)=C(Cl)CS[C@H]12)c1ccccc1` [Cefaclor], the “Senescence inducing condition 1 (compound concentration combined with IR)” value ([2]; compound + 6 Gy) is reported as 25 μM + 6 Gy.

`CC1=C(C(=O)O)N2C(=O)[C@@H](NC(=O)[C@H](N)c3ccccc3)[C@H]2SC1` [Cephalexin] was tested, and the “Senescence inducing condition 2 (compound concentration combined with IR)” value ([2]; compound + 6 Gy) was 10 μM + 6 Gy.

`N.N.[Cl][Pt][Cl]` [Cisplatin] was tested, and the “persistence of GFP-53BP1 foci” value [2, 5] was “induced persistence of GFP-53BP1 foci” and the senescence and growth [2, 5] was “accelerated senescence and growth suppression”.

In the case of `CN(C)CCC=C1c2ccccc2COc2ccccc21` [Doxepin], the “Senescence inducing condition 2 (compound concentration combined with IR)” value ([2]; compound + 5 Gy) is reported as 2.5 μM + 5 Gy.

For `O=c1[nH]cc(F)c(=O)[nH]1` [Fluorouracil (5-FU), Fluorouracil], the accelerated senescence [2] was “accelerates senescence” and the “persistence of GFP-53BP1 foci (IRIF)” value [2] was “enhances IRIF persistence”.

For `CN1CCC(=C2c3ccccc3CC(=O)c3sccc32)CC1` [Ketotifen], the “Senescence inducing condition 2 (compound concentration combined with IR)” value ([2]; compound + 5 Gy) was 5 μM + 5 Gy.

With `COC(=O)C1=C(C)NC(C)=C(C(=O)OCC(C)C)C1c1ccccc1[N+](=O)[O-]` (stereo not shown) [Nisoldipine] the “Senescence inducing condition 2 (compound concentration combined with IR)” value ([2]; compound + 6 Gy) was 10 μM + 6 Gy.

With `O=C(O)C[C@H](O)C[C@H](O)/C=C/c1c(C2CC2)nc2ccccc2c1-c1ccc(F)cc1` [Pitavastatin] the “Senescence inducing condition 1 (compound concentration combined with IR)” value ([2]; compound + 6 Gy) was 10 μM + 6 Gy.

For `O=c1c(O)c(-c2ccc(O)c(O)c2)oc2cc(O)cc(O)c12` [Quercetin], the “Senescence inducing condition 2 (compound concentration combined with IR)” value ([2]; compound + 5 Gy) was 2.5 μM + 5 Gy.

`COc1ccc(C2CNC(=O)C2)cc1OC1CCCC1` (stereo not shown) [Rolipram] was tested, and the “Senescence inducing condition 1 (compound concentration combined with IR)” value ([2]; compound + 6 Gy) was 10 μM + 6 Gy.

In the case of `O=C(CCCCCCC(=O)Nc1ccccc1)NO` [SAHA, suberoylanilide hydroxamic acid], the “persistence of GFP-53BP1 foci (IRIF)” value [2] is reported as “enhance radiation induced persistence of GFP-53BP1 foci”.

For `CC/C(=C(\c1ccccc1)c1ccc(OCCN(C)C)cc1)c1ccccc1` [Tamoxifen], the accelerated senescence [2] was “promoted accelerated senescence” and the “persistence of GFP-53BP1 foci (IRIF)” value [2] was “induced persistence of GFP-53BP1 foci after irradiation”.

`CN(C/C=C/C#CC(C)(C)C)Cc1cccc2ccccc12` [Terbinafine] was tested, and the “Senescence inducing condition 1 (compound concentration combined with IR)” value ([2]; compound + 5 Gy) was 2.5 μM + 5 Gy.

For `O=c1n(CCCN2CCN(c3cccc(Cl)c3)CC2)nc2ccccn12` [Trazodone], the “Senescence inducing condition 2 (compound concentration combined with IR)” value ([2]; compound + 6 Gy) was 10 μM + 6 Gy.

In the case of `CCCCCCCCCCCCCCCc1cccc(O)c1C(=O)O` [anacardic acid], the “persistence of GFP-53BP1 foci (IRIF)” value [2] is reported as “enhance radiation induced persistence of GFP-53BP1 foci”.

With `c1cc(-c2cnn3cc(-c4ccc(OCCN5CCCCC5)cc4)cnc23)ccn1` [compound C] the accelerated senescence [2] was “promoted accelerated senescence” and the “persistence of GFP-53BP1 foci (IRIF)” value [2] was “induced persistence of GFP-53BP1 foci after irradiation”.

With `O=C(O)C(Cl)Cl` [dichloroacetic acid (DCA), dichloroacetic acid] the accelerated senescence [2] was “promoted accelerated senescence” and the “persistence of GFP-53BP1 foci (IRIF)” value [2] was “induced persistence of GFP-53BP1 foci following irradiation”.

In the case of `CN(C)C(=N)N=C(N)N` [metformin], the accelerated senescence [2] is reported as “promoted accelerated senescence” and the “persistence of GFP-53BP1 foci (IRIF)” value [2] is reported as “induced persistence of GFP-53BP1 foci after irradiation”.

For `O=C(CCc1ccc(O)cc1)c1c(O)cc(O)cc1O` [phloretin], the IRIF persistence [3] was “markedly increased IRIF persistence”, the accelerated senescence [2] was “promoted accelerated senescence” and the “persistence of GFP-53BP1 foci (IRIF)” value [2] was “induced persistence of GFP-53BP1 foci following irradiation”. The IRIF persistence [4] was “markedly increased IRIF persistence”.

In the case of oxalate [PKi], the IRIF persistence [3] is reported as “markedly increased IRIF persistence” and the IRIF persistence [4] is reported as “markedly increased IRIF persistence”.
